According to patent US20250049738A1, “METHOD OF TREATMENT AND SELECTION OF PATIENTS BENEFITING FROM AGOMELATINE BASED ON EEG MEASUREMENTS” (Alto Neuroscience, Inc., priority 2023, published 2025):

What was measured:
[1] = test system: patients with major depressive disorder; experiment: Open-label trials of adjunctive agomelatine 25 mg at bedtime in MDD; baseline EEG models predicting change in MADRS; assay type: in vivo, human
[2] = test system: unselected depression patients; settings: monotherapy, meta-analytically calculated; cited from earlier work
sleep measures = settings: cited from earlier work
[3] = test system: performance on a trail making task; settings: versus an SSRI; cited from earlier work
circadian rhythm = settings: in vivo; cited from earlier work

COc1ccc2cccc(CCNC(C)=O)c2c1 [agomelatine, N-[2-(7-methoxynaphthalen-1-yl)ethyl]acetamide]
d (Cohen's d, prediction of agomelatine outcome) ([1]; REC, Modified Multiscale Entropy, lower gamma, Week 2): 0.01 | d (Cohen's d, prediction of agomelatine outcome) ([1]; REC, Modified Multiscale Entropy, lower gamma, Week 4): 0.21 | d (Cohen's d, prediction of agomelatine outcome) ([1]; REC, Modified Multiscale Entropy, upper alpha, Week 1): 0.19 | d (Cohen's d, prediction of agomelatine outcome) ([1]; REC, Modified Multiscale Entropy, upper alpha, Week 2): 0.25 | d (Cohen's d, prediction of agomelatine outcome) ([1]; REC, Modified Multiscale Entropy, upper alpha, Week 4): 0.39 | d (Cohen's d, prediction of agomelatine outcome) ([1]; REC, Multiscale Entropy, upper alpha, Week 1): 0.05 | d (Cohen's d, prediction of agomelatine outcome) ([1]; REO, Approximate Entropy, lower gamma, Week 1): −0.15 | d (Cohen's d, prediction of agomelatine outcome) ([1]; REO, Approximate Entropy, lower gamma, Week 2): −0.05 | d (Cohen's d, prediction of agomelatine outcome) ([1]; REO, Approximate Entropy, lower gamma, Week 4): 0.09 | d (Cohen's d, prediction of agomelatine outcome) ([1]; REO, Detrended Fluctuation Analysis, upper gamma, Week 1): 0.37 | d (Cohen's d, prediction of agomelatine outcome) ([1]; REO, Detrended Fluctuation Analysis, upper gamma, Week 2): 0.33 | d (Cohen's d, prediction of agomelatine outcome) ([1]; REO, Detrended Fluctuation Analysis, upper gamma, Week 4): 0.32 | d (Cohen's d, prediction of agomelatine outcome) ([1]; REO, Higuchi Fractal Dimension, delta, Week 1): −0.15 | d (Cohen's d, prediction of agomelatine outcome) ([1]; REO, Higuchi Fractal Dimension, delta, Week 2): −0.05 | d (Cohen's d, prediction of agomelatine outcome) ([1]; REO, Higuchi Fractal Dimension, delta, Week 4): 0.12 | d (Cohen's d, prediction of agomelatine outcome) ([1]; REO, Higuchi Fractal Dimension, lower beta, Week 1): 0.03 | d (Cohen's d, prediction of agomelatine outcome) ([1]; REO, Higuchi Fractal Dimension, lower beta, Week 2): 0.03 | d (Cohen's d, prediction of agomelatine outcome) ([1]; REO, Higuchi Fractal Dimension, lower beta, Week 4): 0.05 | d (Cohen's d, prediction of agomelatine outcome) ([1]; REO, Higuchi Fractal Dimension, upper gamma, Week 1): 0.04 | d (Cohen's d, prediction of agomelatine outcome) ([1]; REO, Higuchi Fractal Dimension, upper gamma, Week 2): 0.06 | d (Cohen's d, prediction of agomelatine outcome) ([1]; REO, Higuchi Fractal Dimension, upper gamma, Week 4): 0.11 | d (Cohen's d, prediction of agomelatine outcome) ([1]; REO, Katz Fractal Dimension, delta, Week 1): 0.04 | d (Cohen's d, prediction of agomelatine outcome) ([1]; REO, Katz Fractal Dimension, delta, Week 2): 0.07 | d (Cohen's d, prediction of agomelatine outcome) ([1]; REO, Katz Fractal Dimension, delta, Week 4): 0.13 | d (Cohen's d, prediction of agomelatine outcome) ([1]; REO, Katz Fractal Dimension, lower beta, Week 1): 0.28 | d (Cohen's d, prediction of agomelatine outcome) ([1]; REO, Katz Fractal Dimension, lower beta, Week 2): 0.18 | d (Cohen's d, prediction of agomelatine outcome) ([1]; REO, Katz Fractal Dimension, lower beta, Week 4): 0.06 | d (Cohen's d, prediction of agomelatine outcome) ([1]; REO, Katz Fractal Dimension, upper beta, Week 1): 0.24 | d (Cohen's d, prediction of agomelatine outcome) ([1]; REO, Katz Fractal Dimension, upper beta, Week 2): 0.24 | d (Cohen's d, prediction of agomelatine outcome) ([1]; REO, Katz Fractal Dimension, upper beta, Week 4): 0.29 | d (Cohen's d, prediction of agomelatine outcome) ([1]; REO, Largest Lyapunov Exponent, upper alpha, Week 1): 0.03 | d (Cohen's d, prediction of agomelatine outcome) ([1]; REO, Largest Lyapunov Exponent, upper alpha, Week 2): 0.08 | d (Cohen's d, prediction of agomelatine outcome) ([1]; REO, Largest Lyapunov Exponent, upper alpha, Week 4): 0.17 | d (Cohen's d, prediction of agomelatine outcome) ([1]; REO, Largest Lyapunov Exponent, upper gamma, Week 1): −0.24 | d (Cohen's d, prediction of agomelatine outcome) ([1]; REO, Largest Lyapunov Exponent, upper gamma, Week 2): −0.11 | d (Cohen's d, prediction of agomelatine outcome) ([1]; REO, Largest Lyapunov Exponent, upper gamma, Week 4): 0.08 | d (Cohen's d, prediction of agomelatine outcome) ([1]; REO, Lempel-Ziv Complexity, lower gamma, Week 1): −0.24 | d (Cohen's d, prediction of agomelatine outcome) ([1]; REO, Lempel-Ziv Complexity, lower gamma, Week 2): −0.13 | d (Cohen's d, prediction of agomelatine outcome) ([1]; REO, Lempel-Ziv Complexity, lower gamma, Week 4): 0.02 | d (Cohen's d, prediction of agomelatine outcome) ([1]; REO, Lempel-Ziv Complexity, theta, Week 1): 0.13 | d (Cohen's d, prediction of agomelatine outcome) ([1]; REO, Lempel-Ziv Complexity, theta, Week 2): 0.14 | d (Cohen's d, prediction of agomelatine outcome) ([1]; REO, Lempel-Ziv Complexity, theta, Week 4): 0.17 | d (Cohen's d, prediction of agomelatine outcome) ([1]; REO, Lempel-Ziv Complexity, upper beta, Week 1): 0.19 | d (Cohen's d, prediction of agomelatine outcome) ([1]; REO, Lempel-Ziv Complexity, upper beta, Week 2): 0.21 | d (Cohen's d, prediction of agomelatine outcome) ([1]; REO, Lempel-Ziv Complexity, upper beta, Week 4): 0.30 | d (Cohen's d, prediction of agomelatine outcome) ([1]; REO, Modified Multiscale Entropy, upper beta, Week 1): 0.08 | d (Cohen's d, prediction of agomelatine outcome) ([1]; REO, Modified Multiscale Entropy, upper beta, Week 2): 0.15 | d (Cohen's d, prediction of agomelatine outcome) ([1]; REO, Modified Multiscale Entropy, upper beta, Week 4): 0.31 | d (Cohen's d, prediction of agomelatine outcome) ([1]; REO, Multiscale Entropy, lower gamma, Week 1): −0.41 | d (Cohen's d, prediction of agomelatine outcome) ([1]; REO, Multiscale Entropy, lower gamma, Week 2): −0.21 | d (Cohen's d, prediction of agomelatine outcome) ([1]; REO, Multiscale Entropy, lower gamma, Week 4): 0.05 | MADRS change, high vs low Pz low-gamma sample entropy ([1]; high = z≥0.27, full study sample, all weeks, FIG. 2C): strong and statistically significant prediction of treatment outcome across all weeks | all-comer effect size d, treatment response to agomelatine versus placebo [2]: 0.26 | sleep measures assessed using actigraphic measurements (sleep measures; in contrast to an SSRI): improve sleep measures | deep to total sleep ratio (sleep measures; in vivo): increasing the deep to total sleep ratio | performance on a trail making task [3]: superior to an SSRI | effect on circadian rhythm (circadian rhythm): phase advance circadian rhythm
